Data taken from patent US20030100550A1, “Carboxamide diazepin derivatives, preparation method, use as medicines, pharmaceutical compositions and use thereof” (priority 2002, published 2003).

Assays:
Format in all cases: biochemical
Cathepsin B = biological target: T1, Cathepsin B (Homo sapiens, UniProt P07858); experiment: Study of Cathepsin B inhibition (fluorescence, Z-arg-arg-AMC); conditions: for IC50: substrate Z-arg-arg-AMC 20 μM, enzyme 16 ng/ml, 1 hour at ambient temperature; for Cathepsin B, percentage in parentheses beside IC50 value (% inhibition): printed beside 20 μM, meaning not explained
T1 construct: purchased Calbiochem
Procedure: (§1) The products to be tested (10 mM) are diluted to […] in DMSO and distributed into Nunc polystyrene 96 well plates at a rate of 2 μl per well. Column 12 of the plate is reserved for the controls and therefore receives […] of DMSO (without products) per well. The plates are stored at −80° C. and thawed on the day of the experiment.
(§2) The products are diluted to 50 μM by adding 38 μl of reaction buffer: sodium acetate 100 mM, EDTA 5 mM, DTT […] pH 5.5. The addition as well as all the operations by pipette are carried out with a CybiWell 96 tip pipette. After mixing the solutions, each product is transferred into 2 wells (duplicates) of a Greiner black 384 well plate at a rate of 10 μl per well. Two 96-well plates can therefore be tested in a 384-well plate.
(§3) A solution of substrate at 50 μM, Z-Val-arg-AMC (Calbiochem), is prepared in the reaction buffer. The substrate, is then distributed into all the wells of the 384-well plate (20 μl per well).
(§4) A solution of Cathepsin K at 12.5 ng/ml is prepared in the reaction buffer and distributed into all the wells of the 384-well plate (20 μl per well) except for the 16 wells serving as 100% inhibition controls (column 23 and 24, lines I to P) which receive 20 μl of enzyme-free buffer.
(§5) The plates are then incubated 2H at ambient temperature, then read on Fluoroskan (Labsystems): excitation 390 nm; emission 460 nm
(§6) The final concentrations of each of the reagents are: products 10 μM, substrate 20 μM, enzyme 5 ng/ml.
(§7) The % inhibition for each of the products is calculated by using points at 0 and 100% inhibition of each plate as references. The products presenting a significant inhibition are then retested on a range of concentrations from 50 to 0.5 μM to determine an IC50.
Study of Cathepsin B Inhibition:
(§8) Protocol identical to that of Cathepsin K except for:
Z-arg-arg-AMC substrate (Calbiochem), solution at 50 μM, final concentration 20 μM
Cathepsin B (Calbiochem), solution at 40 ng/ml, final concentration 16 ng/ml
Incubation for 1 hour at ambient temperature

Cathepsin K = biological target: T2, Cathepsin K (Homo sapiens, UniProt P43235); experiment: Study of Cathepsin K inhibition (fluorescence, Z-Val-arg-AMC); conditions: substrate Z-Val-arg-AMC 20 μM, enzyme 5 ng/ml, 2H at ambient temperature; read-out: Cathepsin K IC50
T2 sequence (P43235 115-329): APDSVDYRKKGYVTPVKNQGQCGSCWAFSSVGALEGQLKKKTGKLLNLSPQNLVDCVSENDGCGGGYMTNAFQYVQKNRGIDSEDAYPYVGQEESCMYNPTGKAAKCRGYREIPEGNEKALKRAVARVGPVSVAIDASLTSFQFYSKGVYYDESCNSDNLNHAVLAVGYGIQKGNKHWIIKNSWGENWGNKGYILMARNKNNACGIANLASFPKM
Procedure: Study of Cathepsin K Inhibition:
as §1, §2, §3, §4, §5, §6, §7

Papain = biological target: T3, Papain (Carica papaya, UniProt P00784); experiment: Study of Papain inhibition (fluorescence); conditions: enzyme 20 ng/ml, 30 minutes at ambient temperature
T3 construct: purchased Sigma
T3 sequence (P00784 134-345): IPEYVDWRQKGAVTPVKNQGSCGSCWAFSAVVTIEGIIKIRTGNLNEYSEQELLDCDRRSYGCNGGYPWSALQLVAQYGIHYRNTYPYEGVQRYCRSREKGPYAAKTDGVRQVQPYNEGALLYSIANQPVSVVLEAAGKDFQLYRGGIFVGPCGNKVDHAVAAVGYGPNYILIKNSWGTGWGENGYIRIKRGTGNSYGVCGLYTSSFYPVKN
Procedure: as §1, §2, §3, §4, §5, §6, §7
Study of Papain Inhibition:
as §8
Papain (Sigma), solution at 50 ng/ml, final concentration 20 ng/ml
Incubation for 30 minutes at ambient temperature

Row | Compound | IC50 (Cathepsin B) [µM] | IC50 (Cathepsin K) [µM] | IC50 (Papain) [µM] | Cathepsin B, percentage in parentheses beside IC50 value (% inhibition) (Cathepsin B) [%]
1 | CC(C)C[C@H](NC(=O)[C@@H]1CCCN2C(=O)CC[C@H](NS(=O)(=O)c3ccc4ccccc4c3)C(=O)N12)C(=O)COC(=O)c1c(Cl)cccc1Cl [Example 322, 9-[(9S)-[(2-naphthalenyl)sulphonyl]amino]-N-[(3S)-5-methyl-1-[(2,6-dichlorobenzoyl)oxy]-2-oxo-3-hexyl]-octahydro-6,10-dioxo-6H-(1S)-pyridazino[1,2-a][1,2]diazepine-1-carboxamide] | 6 | 20 |  | 
2 | C=CCOC(=O)CC[C@H](NC(=O)[C@@H]1CCCN2C(=O)CC[C@H](NC(=O)Nc3ccc(Oc4ccccc4)cc3)C(=O)N12)C(=O)C=[N+]=[N-] [Example 43, (2-propenyl)(4S)6-diazo-4-[[[(1S,9S)-9-[[[(4-phenoxyphenyl)amino]carbonyl]amino]-octahydro-6,10-dioxo-6H-pyridazino[1,2-a][1,2]diazepine-1-yl]carbonyl]amino]-5-oxo-hexanoate] | 15 | 1.5 |  | 
3 | O=C(NCCc1cccs1)N[C@H]1CCC(=O)N2CCC[C@@H](C(=O)N[C@@H](Cc3ccccc3)C(=O)CN3CCN(CC(=O)N4CCCC4)CC3)N2C1=O [Example 229] | 18 | 20 |  | 
4 | C[C@H](NC(=O)[C@@H]1CCCN2C(=O)CC[C@H](NC(=O)Nc3ccc(Oc4ccccc4)cc3)C(=O)N12)C(=O)COC(=O)c1c(Cl)cccc1Cl [Example 453, 9-[(9S)-[[(4-phenoxyphenyl)amino]carbonyl]amino]-N-[(2S)-4-[(2,6-dichlorobenzoyl)oxy]-3-oxo-2-butyl]-octahydro-6,10-dioxo-6H-(1S)-pyridazino[1,2-a][1,2]diazepine-1-carboxamide] | 9 | 20 |  | 
5 | C=CCOC(=O)CC[C@H](NC(=O)[C@@H]1CCCN2C(=O)CC[C@H](NC(=O)c3ccco3)C(=O)N12)C(=O)COC(=O)c1c(Cl)cccc1Cl [Example 91, (2-propenyl)(4S)6-[(2,6-dichlorobenzoyl)oxy]-4-[[[(1S,9S)-9-[[(2-furanyl)carbonyl]amino]-octahydro-6,10-dioxo-6H-pyridazino[1,2-a][1,2]diazepine-1-yl]carbonyl]amino]-5-oxo-hexanoate] | < 0.2 | 6 |  | 
6 | O=C(Nc1ccc(Oc2ccccc2)cc1)N[C@H]1CCC(=O)N2CCC[C@@H](C(=O)N[C@@H](Cc3ccccc3)C(=O)COC(=O)Cc3ccsc3)N2C1=O [Example 216, 9-[(9S)-[[(4-phenoxyphenyl)amino]carbonyl]amino]-N-[(2S)-1-phenyl-4-[1-oxo-2-(3-thienyl)ethoxy]-3-oxo-2-butyl]-octahydro-6,10-dioxo-6H-(1S)-pyridazino[1,2-a][1,2]diazepine-1-carboxamide] |  |  | 6 | 
7 | (2-propenyl)(4S)6-diazo-4-[[[(1S,9S)-9-[[[[2-(p-2-yl)-ethyl]amino]carbonyl]amino]-octahydro-6,10-dioxo-6H-pyridazino[1,2-a][1,2]diazepine-1-yl]carbonyl]amino]-5-oxo-hexanoate [Example 44] |  | 2 |  | 40
8 | C[C@H](NC(=O)[C@@H]1CCCN2C(=O)CC[C@H](NC(=O)NC3CCCCC3)C(=O)N12)C(=O)COC(=O)c1c(Cl)cccc1Cl [Example 433, 9-[(9S)-[(cyclohexylamino)carbonyl]amino]-N-[(2S)-4-[(2,6-dichlorobenzoyl)oxy]-3-oxo-2-butyl]-octahydro-6,10-dioxo-6H-(1S)-pyridazino[1,2-a][1,2]diazepine-1-carboxamide] | 4 | 20 |  | 
9 | C[C@H](NC(=O)[C@@H]1CCCN2C(=O)CC[C@H](NC(=O)NCCc3cccs3)C(=O)N12)C(=O)COC(=O)c1c(Cl)cccc1Cl [Example 473, 9-[(9S)-[[[2-(thien-2-yl)-ethyl]amino]carbonyl]amino]-N-[(2S)-4-[(2,6-dichlorobenzoyl)oxy]-3-oxo-2-butyl]-octahydro-6,10-dioxo-6H-(1S)-pyridazino[1,2-a][1,2]diazepine-1-carboxamide] | 1.5 | 20 |  | 
10 | C=CCOC(=O)CC[C@H](NC(=O)[C@@H]1CCCN2C(=O)CC[C@H](NS(=O)(=O)c3ccc(-c4ccon4)s3)C(=O)N12)C(=O)C=[N+]=[N-] [Example 48, (2-propenyl)(4S)6-diazo-4-[[[(1S,9S)-9-[[[5-(isoxazol-3-yl)-2-thienyl]sulphonyl]amino]-octahydro-6,10-dioxo-6H-pyridazino[1,2-a][1,2]diazepine-1-yl]carbonyl]amino]-5-oxo-hexanoate] | 7 | 3 |  | 
11 | CC(C)C[C@H](NC(=O)[C@@H]1CCCN2C(=O)CC[C@H](NS(=O)(=O)c3ccc(C(F)(F)F)cc3)C(=O)N12)C(=O)C=[N+]=[N-] [Example 347, 9-[(9S)-[[4-(trifluoromethyl)phenyl]sulphonyl]amino]-N-((3S)-1-diazo-5-methyl-2-oxo-3-hexyl)-octahydro-6,10-dioxo-6H-(1S)-pyridazino[1,2-a][1,2]diazepine-1-carboxamide] |  | 12 |  | 25
12 | CC(C)[C@H](NC(=O)[C@@H]1CCCN2C(=O)CC[C@H](NC(=O)NCCc3cccs3)C(=O)N12)C(=O)CSc1nc2ccccc2s1 [Example 398, 9-[(9S)-[[[2-(thien-2-yl)-ethyl]amino]carbonyl]amino]-N-[(3S)-1-[(benzothiazol-2-yl)thio]-4-methyl-2-oxo-3-pentyl]-octahydro-6,10-dioxo-6H-(1S)-pyridazino[1,2-a][1,2]diazepine-1-carboxamide] |  |  | 9 | 
13 | CS(=O)(=O)N[C@H]1CCC(=O)N2CCC[C@@H](C(=O)N[C@@H](Cc3ccccc3)C(=O)COC(=O)c3c(Cl)cccc3Cl)N2C1=O [Example 234, 9-[(9S)-(methylsulphonyl)amino]-N-[(2S)-1-phenyl-4-[(-2,6-dichlorobenzoyl)oxy]-3-oxo-2-butyl]-octahydro-6,10-dioxo-6H-(1S)-pyridazino[1,2-a][1,2]diazepine-1-carboxamide] | 18 | 20 |  | 
14 | C=CCOC(=O)CC[C@H](NC(=O)[C@@H]1CCCN2C(=O)CC[C@H](NC(=O)Nc3ccc(Oc4ccccc4)cc3)C(=O)N12)C(=O)CSc1nc2ccccc2s1 [Example 129, (2-propenyl)(4S)6-[(benzothiazol-2-yl)thio]-4-[[[(1S,9S)-9-[[[(4-phenoxyphenyl)amino]carbonyl]amino]-octahydro-6,10-dioxo-6H-pyridazino[1,2-a][1,2]diazepine-1-yl]carbonyl]amino]-5-oxo-hexanoate] |  |  | 4 | 
15 | O=C(N[C@H]1CCC(=O)N2CCC[C@@H](C(=O)N[C@@H](Cc3ccccc3)C(=O)COC(=O)c3c(Cl)cccc3Cl)N2C1=O)c1ccco1 [Example 192, 9-[(9S)-[(2-furanyl)carbonyl]amino]-N-[(2S)-4-[(2,6-dichlorobenzoyl)oxy]-1-phenyl-3-oxo-2-butyl]-octahydro-6,10-dioxo-6H-(1S)-pyridazino[1,2-a][1,2]diazepine-1-carboxamide] | 18 | 20 |  | 
16 | CC(C)C[C@H](NC(=O)[C@@H]1CCCN2C(=O)CC[C@H](NS(C)(=O)=O)C(=O)N12)C(=O)COC(=O)c1c(Cl)cccc1Cl [Example 304, 9-[(9S)-(methylsulphonyl)amino]-N-[(3S)-5-methyl-1-[(2,6-dichlorobenzoyl)oxy]-2-oxo-3-hexyl]-octahydro-6,10-dioxo-6H-(1S)-pyridazino[1,2-a][1,2]diazepine-1-carboxamide] | 1.5 | 12 |  | 
